Experimental data as given in ChEMBL document CHEMBL5226297, “Small-Molecule Drug Discovery in Triple Negative Breast Cancer: Current Situation and Future Directions” (J Med Chem, 2021).

Assays:
MDA-MB-231 [1] = assay: Anticancer activity against human MDA-MB-231 cells assessed as cell growth inhibition incubated for 48 hrs by BrdU assay; type: functional, cell-based; settings: MDA-MB-231, 48 h
MDA-MB-468 [2] = assay: Anticancer activity against human MDA-MB-468 cells assessed as cell growth inhibition incubated for 48 hrs by BrdU assay; type: functional, cell-based; settings: MDA-MB-468, 48 h
[3] = biological target: Protein SET (Homo sapiens) (UniProt Q01105); assay: Inhibition of SET (unknown origin)
Sequence of Protein SET (Homo sapiens) (Q01105 whole entry): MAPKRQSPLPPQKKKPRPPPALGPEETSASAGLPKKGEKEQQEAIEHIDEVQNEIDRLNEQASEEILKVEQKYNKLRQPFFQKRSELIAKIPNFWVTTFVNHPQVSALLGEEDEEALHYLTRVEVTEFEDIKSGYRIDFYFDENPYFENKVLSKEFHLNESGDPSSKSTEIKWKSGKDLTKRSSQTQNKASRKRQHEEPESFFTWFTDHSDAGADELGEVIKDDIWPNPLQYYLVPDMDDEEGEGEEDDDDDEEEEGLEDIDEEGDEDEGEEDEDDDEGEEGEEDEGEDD

MDA-MB-231 [4] = assay: Anticancer activity against human MDA-MB-231 cells assessed as cell growth inhibition incubated for 24 hrs by MTT assay; type: functional, cell-based; settings: MDA-MB-231, 24 h
HCC1806 = assay: Anticancer activity against human HCC1806 cells assessed as cell growth inhibition incubated for 48 hrs by SRB assay; type: functional, cell-based; settings: HCC1806, 48 h
[5] = biological target: N-lysine methyltransferase SMYD2 (Homo sapiens, UniProt Q9NRG4); assay: Inhibition of human SMYD2 by western blot assay
Sequence of N-lysine methyltransferase SMYD2 (Q9NRG4 whole entry): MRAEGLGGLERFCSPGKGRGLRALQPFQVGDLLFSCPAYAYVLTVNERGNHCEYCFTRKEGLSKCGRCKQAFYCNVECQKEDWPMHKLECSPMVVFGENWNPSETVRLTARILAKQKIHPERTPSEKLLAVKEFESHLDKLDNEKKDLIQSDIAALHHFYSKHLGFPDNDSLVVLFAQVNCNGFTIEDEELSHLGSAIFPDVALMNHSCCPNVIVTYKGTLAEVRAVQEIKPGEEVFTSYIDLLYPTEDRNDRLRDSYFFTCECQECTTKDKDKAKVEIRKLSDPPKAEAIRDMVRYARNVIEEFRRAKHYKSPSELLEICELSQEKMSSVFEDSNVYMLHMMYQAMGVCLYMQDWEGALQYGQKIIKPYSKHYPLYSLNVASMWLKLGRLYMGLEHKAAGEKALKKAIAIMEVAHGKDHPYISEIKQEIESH

[6] = biological target: Dual specificity mitogen-activated protein kinase kinase 1 (Homo sapiens, UniProt Q02750); assay: Inhibition of MEK1 (unknown origin)
Sequence of Dual specificity mitogen-activated protein kinase kinase 1 (Q02750 whole entry): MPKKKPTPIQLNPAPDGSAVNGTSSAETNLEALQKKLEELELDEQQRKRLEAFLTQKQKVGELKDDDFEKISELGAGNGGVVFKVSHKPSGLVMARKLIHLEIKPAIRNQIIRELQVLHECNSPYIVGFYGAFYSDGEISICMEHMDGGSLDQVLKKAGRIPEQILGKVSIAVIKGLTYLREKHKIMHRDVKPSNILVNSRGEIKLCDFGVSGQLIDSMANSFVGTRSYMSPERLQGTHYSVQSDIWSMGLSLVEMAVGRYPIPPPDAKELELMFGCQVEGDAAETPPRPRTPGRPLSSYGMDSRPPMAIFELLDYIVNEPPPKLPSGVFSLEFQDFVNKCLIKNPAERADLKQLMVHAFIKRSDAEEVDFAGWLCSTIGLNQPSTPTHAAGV

MDA-MB-231 [7] = assay: Anticancer activity against human MDA-MB-231 cells assessed as cell growth inhibition incubated for 72 hrs by MTT assay; type: functional, cell-based; settings: MDA-MB-231, 72 h
MDA-MB-436 [8] = assay: Anticancer activity against human MDA-MB-436 cells assessed as cell growth inhibition incubated for 72 hrs by MTT assay; type: functional, cell-based; settings: MDA-MB-436, 72 h
HCC38 = assay: Anticancer activity against human HCC38 cells assessed as cell growth inhibition by MTT assay; type: functional, cell-based
MDA-MB-468 [9] = assay: Anticancer activity against human MDA-MB-468 cells assessed as cell growth inhibition by MTT assay; type: functional, cell-based
MDA-MB-231 [10] = assay: cells; settings: Homo sapiens
MDA-MB-468 [11] = assay: Anticancer activity against human MDA-MB-468 cells assessed as cell growth inhibition incubated for 48 hrs by MTT assay; type: functional, cell-based; settings: MDA-MB-468, 48 h
MDA-MB-231 [12] = assay: cells; settings: Homo sapiens, MDA-MB-231, 48 h
MDA-MB-436 [13] = assay: Anticancer activity against human MDA-MB-436 cells assessed as cell growth inhibition incubated for 24 hrs by MTT assay; type: functional, cell-based; settings: MDA-MB-436, 24 h
[14] = biological target: Eukaryotic elongation factor 2 kinase (Homo sapiens, UniProt O00418); assay: Inhibition of eEF2K (unknown origin) by western blot analysis
Sequence of Eukaryotic elongation factor 2 kinase (O00418 whole entry): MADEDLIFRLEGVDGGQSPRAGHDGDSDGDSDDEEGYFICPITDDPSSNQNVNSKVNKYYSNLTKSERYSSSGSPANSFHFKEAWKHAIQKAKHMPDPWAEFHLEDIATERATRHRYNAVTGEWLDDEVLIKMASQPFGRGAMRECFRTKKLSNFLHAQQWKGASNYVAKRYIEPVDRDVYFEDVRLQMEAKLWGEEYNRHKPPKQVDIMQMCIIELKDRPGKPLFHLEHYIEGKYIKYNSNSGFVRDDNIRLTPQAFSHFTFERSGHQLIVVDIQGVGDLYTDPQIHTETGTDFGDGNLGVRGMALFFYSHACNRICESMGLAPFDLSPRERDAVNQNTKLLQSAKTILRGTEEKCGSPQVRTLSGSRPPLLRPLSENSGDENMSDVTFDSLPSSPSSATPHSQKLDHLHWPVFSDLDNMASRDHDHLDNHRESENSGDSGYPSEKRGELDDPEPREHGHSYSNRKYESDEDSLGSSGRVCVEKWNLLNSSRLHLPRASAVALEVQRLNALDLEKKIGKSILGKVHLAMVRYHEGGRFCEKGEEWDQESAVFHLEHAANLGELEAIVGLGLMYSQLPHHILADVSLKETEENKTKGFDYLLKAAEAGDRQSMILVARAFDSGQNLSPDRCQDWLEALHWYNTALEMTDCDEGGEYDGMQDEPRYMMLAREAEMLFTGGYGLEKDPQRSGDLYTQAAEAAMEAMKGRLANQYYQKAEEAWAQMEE

MDA-MB-231 [15] = assay: Anticancer activity against human MDA-MB-231 cells assessed as cell growth inhibition; type: functional, cell-based
BT-549 [16] = assay: Anticancer activity against human BT-549 cells assessed as cell growth inhibition incubated for 24 hrs by MTT assay; type: functional, cell-based; settings: BT-549, 24 h
MDA-MB-231 [17] = assay: Anticancer activity against human MDA-MB-231 cells assessed as cell growth inhibition by MTS assay; type: functional, cell-based
HCC70 [18] = assay: Anticancer activity against human HCC70 cells assessed as cell growth inhibition incubated up to 72 hrs by Cell-Titre Glo assay; type: functional, cell-based; settings: HCC70, 72 h
MDA-MB-231 [19] = assay: Anticancer activity against human MDA-MB-231 cells assessed as cell growth inhibition incubated up to 72 hrs by Cell-Titre Glo assay; type: functional, cell-based; settings: MDA-MB-231, 72 h
HCC1937 = assay: Anticancer activity against human HCC1937 cells assessed as cell growth inhibition incubated for 72 hrs by MTT assay; type: functional, cell-based; settings: HCC1937, 72 h
HCC70 [20] = assay: Anticancer activity against human HCC70 cells assessed as cell growth inhibition incubated for 72 hrs by MTT assay; type: functional, cell-based; settings: HCC70, 72 h
Hs-578T [21] = assay: Anticancer activity against human Hs-578T cells assessed as cell growth inhibition incubated for 72 hrs by MTT assay; type: functional, cell-based
Hs-578T [22] = assay: Anticancer activity against human Hs-578T cells assessed as cell growth inhibition by MTS assay; type: functional, cell-based
BT-549 [23] = assay: Anticancer activity against human BT-549 cells assessed as cell growth inhibition by MTS assay; type: functional, cell-based
[24] = Inhibition of ERK (unknown origin); set-up: species or system Homo sapiens
[25] = Inhibition of MEK (unknown origin); set-up: species or system Homo sapiens
4T1 = assay: Anticancer activity against mouse 4T1 cells assessed as cell growth inhibition by MTS assay; type: functional, cell-based

## CC(C)CC[C@@H]1NC(=O)[C@]2(C)CCCN2C1=O
MDA-MB-231 [1]
  IC50: 73.4 µM
MDA-MB-468 [2]
  IC50: 67.4 µM

## C#Cc1cccc(Nc2nc(Nc3ccc(Oc4ccccc4)cc3)nc3cc(OC)c(OC)cc23)c1
[3]
  IC: 3 µM

## C=C1C(=O)O[C@@H]2C[C@@]3(C)CCC[C@H](C)C3=C[C@H]12 [HELENINE]
MDA-MB-231 [4]
  IC50: 15 µM

## C[C@H]1[C@H](C)CC[C@]2(C(=O)N3CCNCC3)CC[C@]3(C)C(=CC[C@@H]4[C@@]5(C)Cc6cn[nH]c6C(C)(C)[C@@H]5CC[C@]43C)[C@H]12
HCC1806
  IC50: 7 µM

## O=C1COc2c(CCNCCN(C(=O)CCNCCc3ccc(Cl)c(Cl)c3)C3CCCCC3)ccc(O)c2N1
[5]
  IC50: 20 µM

## O=C(c1ccc(F)c(F)c1Nc1ccc(I)cc1F)N1CC(O)([C@@H]2CCCCN2)C1 [COBIMETINIB]
[6]
  IC50: 4.2 µM

## C=C1C(=O)O[C@@H]2/C=C(\C)[C@@H](O)C/C=C(/C)C[C@@H](OC(=O)/C(C)=C/CO)[C@@H]12
MDA-MB-231 [7]
  IC50: 3.21 µM
MDA-MB-436 [8]
  IC50: 3.04 µM

## CC(=O)N1c2ccccc2Oc2ccccc21
MDA-MB-231 [4]
  IC50: 0.3 µM

## O=C(NC[C@H](O)CN1CCc2ccccc2C1)c1cc(NC2COC2)ncn1
HCC38
  IC50: 5 µM
MDA-MB-468 [9]
  IC50: 1 µM
MDA-MB-231 [10]
  IC50: 60 µM

## Cc1c(-c2ccc(O)cc2)n(Cc2ccc(OCCN3CCCCCC3)cc2)c2ccc(O)cc12 [BAZEDOXIFENE]
MDA-MB-468 [11]
  IC50: 3.14 µM
MDA-MB-231 [12]
  IC50: 7.45 µM

## Cc1nc(NCc2ccccc2F)ncc1C(=O)NCc1cccs1
MDA-MB-436 [13]
  IC50: 7.89 µM

## CC1=CC(=O)C(C(C)C)=CC1=O [THYMOQUINONE]
[14]
  IC50: 8.2 µM

## CO[C@H]1C[C@H](C)Cc2cc(O)cc(c2)NC(=O)/C(C)=C/CC[C@H](OC)[C@@H](OC(N)=O)/C(C)=C/[C@H](C)[C@H]1O
MDA-MB-231 [15]
  IC50: 74.9 µM

## C=C1C(=O)O[C@]2(C)CC[C@H](CBr)[C@]12OC
MDA-MB-231 [4]
  IC50: 7.91 µM
MDA-MB-436 [13]
  IC50: 8.63 µM
BT-549 [16]
  IC50: 6.61 µM

## CC[C@@H](C(=O)[C@@H](C)[C@@H](O)[C@H](C)[C@@H]1O[C@@H]([C@@H](CC)C(=O)O)CC[C@@H]1C)[C@H]1O[C@]2(C=C[C@@H](O)[C@]3(CC[C@@](C)([C@H]4CC[C@](O)(CC)[C@H](C)O4)O3)O2)[C@H](C)C[C@@H]1C [SALINOMYCIN]
MDA-MB-231 [17]
  IC50: 0.5 µM

## CC(=O)O[C@@H]1[C@@H](OC(C)=O)[C@@H](O)[C@H](Oc2c(-c3ccc(O)cc3)oc3cc(O)cc(O)c3c2=O)O[C@H]1C
HCC70 [18]
  IC50: 15 µM
MDA-MB-231 [19]
  IC50: 3 µM

## C[C@@H]1COC(Nc2ccc3ncnc(Nc4ccc(OCc5nccs5)c(Cl)c4)c3c2)=N1 [VARLITINIB]
HCC1937
  IC50: 20 µM
HCC70 [20]
  IC50: 10 µM
Hs-578T [21]
  IC50: 10 µM

## COC(=O)Nc1nc2cc(C(=O)c3ccc(F)cc3)ccc2[nH]1 [FLUBENDAZOLE]
MDA-MB-231 [4]
  IC50: 0.5 µM
MDA-MB-231 [17]
  IC50: 0.25 µM
Hs-578T [22]
  IC50: 0.125 µM
BT-549 [23]
  IC50: 0.125 µM

## O=C(Nc1ccc([N+](=O)[O-])cc1Cl)c1cc(Cl)ccc1O [NICLOSAMIDE]
MDA-MB-231 [4]
  IC50: 0.625 µM

## OC[C@H]1O[C@@H](OCCc2ccc(O)cc2)[C@H](O)[C@@H](O)[C@@H]1O [SALIDROSIDE]
MDA-MB-231 [4]
  IC50: 40 µM

## CCOC(=O)C1=C(C)NC(=O)NC1c1cccc([N+](=O)[O-])c1 (stereo unspecified)
[24]
  IC50: 50 µM
[25]
  IC50: 50 µM

## CCN(CC)C(=S)SSC(=S)N(CC)CC
4T1
  IC50: 0.25 µM
